Test results published in PubChem BioAssay AID256 (DTP/NCI, 2004).
Values joined by “and” are separate entries in the source; they are usually repeats but may differ in a detail not shown here. Equal values may be shown once. Toxic doses and inconclusive results are not listed. Rule for the calls: active = survival T/C of 150% or more; inactive = T/C below 125% in these data.

Tested on: CD2F1 mice, L1210 leukemia ip, survival T/C
Assay: NCI In Vivo Anticancer Drug Screen. Data for tumor model L1210 Leukemia (intraperitoneal) in CD2F1 (CDF1) mice
Details: higher = longer survival
In short: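 Ratio T/C, where T is the treated-group value and C the vehicle-dosed control value, from mice implanted with a transplantable tumor.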

[1] = endpoint: mean survival time, dose: 100.0 mg/kg/injection, schedule: Q01DX009 (ip), vehicle: saline with Tween-80
[2] = endpoint: mean survival time, dose: 100.0 mg/kg/injection, schedule: Q04DX003 (ip), vehicle: saline with Tween-80
[3] = endpoint: mean survival time, dose: 200.0 mg/kg/injection, schedule: Q01DX009 (ip), vehicle: saline with Tween-80
[4] = endpoint: mean survival time, dose: 200.0 mg/kg/injection, schedule: Q04DX003 (ip), vehicle: saline with Tween-80
[5] = endpoint: mean survival time, dose: 400.0 mg/kg/injection, schedule: Q01DX009 (ip), vehicle: saline with Tween-80
[6] = endpoint: mean survival time, dose: 400.0 mg/kg/injection, schedule: Q04DX003 (ip), vehicle: saline with Tween-80
[7] = endpoint: mean survival time, dose: 100.0 mg/kg/injection, schedule: Q04DX003 (ip), vehicle: saline
[8] = endpoint: mean survival time, dose: 200.0 mg/kg/injection, schedule: Q04DX003 (ip), vehicle: saline
[9] = endpoint: mean survival time, dose: 400.0 mg/kg/injection, schedule: Q04DX003 (ip), vehicle: saline
[10] = endpoint: mean survival time, dose: 100.0 mg/kg/injection, schedule: Q01DX001 (ip), vehicle: saline
[11] = endpoint: mean survival time, dose: 200.0 mg/kg/injection, schedule: Q01DX001 (ip), vehicle: saline
[12] = endpoint: mean survival time, dose: 400.0 mg/kg/injection, schedule: Q01DX001 (ip), vehicle: saline
[13] = endpoint: mean survival time, dose: 3.12 mg/kg/injection, schedule: Q01DX009 (ip), vehicle: saline
[14] = endpoint: mean survival time, dose: 6.25 mg/kg/injection, schedule: Q01DX009 (ip), vehicle: saline
[15] = endpoint: mean survival time, dose: 12.5 mg/kg/injection, schedule: Q01DX009 (ip), vehicle: saline
[16] = endpoint: mean survival time, dose: 25.0 mg/kg/injection, schedule: Q01DX009 (ip), vehicle: saline with Tween-80
[17] = endpoint: mean survival time, dose: 25.0 mg/kg/injection, schedule: Q04DX003 (ip), vehicle: saline with Tween-80
[18] = endpoint: mean survival time, dose: 50.0 mg/kg/injection, schedule: Q01DX009 (ip), vehicle: saline with Tween-80
[19] = endpoint: mean survival time, dose: 50.0 mg/kg/injection, schedule: Q04DX003 (ip), vehicle: saline with Tween-80

Measured: T/C

O=C1CCc2c(Br)cccc21
inactive: [1] 106 % of control | [2] 114 % of control | [3] 101 % of control | [4] 100 % of control | [5] 110 % of control | [6] 101 % of control

CC(=O)CCC(C)=O
inactive: [1] 100 % of control | [7] 97 % of control | [3] 109 % of control | [8] 100 % of control | [5] 100 % of control | [9] 94 % of control

O=[N+]([O-])c1ccc(N2CCOCC2)c2c1no[n+]2[O-]
inactive: endpoint: median survival time, dose: 12.5 mg/kg/injection, schedule: Q01DX009 (ip), vehicle: saline with Tween-80 117 % of control | endpoint: median survival time, dose: 25.0 mg/kg/injection, schedule: Q01DX009 (ip), vehicle: saline with Tween-80 112 % of control | endpoint: median survival time, dose: 50.0 mg/kg/injection, schedule: Q01DX009 (ip), vehicle: saline with Tween-80 108 % of control | endpoint: median survival time, dose: 100.0 mg/kg/injection, schedule: Q01DX009 (ip), vehicle: saline with Tween-80 91 % of control

O=C(C=P(c1ccccc1)(c1ccccc1)c1ccccc1)c1ccccc1
inactive: [2] 97 % of control | [4] 101 % of control | [6] 89 % of control

CC1=CC=CNC1(N)Br (centres undefined)
inactive: [10] 100 % of control | [11] 104 % of control | [12] 100 % of control

CC(C)(CCl)c1ccc(C(C)(C)CCl)cc1
inactive: [2] 100 % of control | [4] 91 % of control | [6] 100 % of control

C=CCN(CC=C)N=Nc1ccc(C(N)=O)cc1
inactive: endpoint: mean survival time, dose: 19.75 mg/kg/injection, schedule: Q01DX009 (ip), vehicle: Klucel (hydroxypropylcellulose) (HPC) 102 % of control | endpoint: mean survival time, dose: 39.5 mg/kg/injection, schedule: Q01DX009 (ip), vehicle: Klucel (hydroxypropylcellulose) (HPC) 102 % of control | endpoint: mean survival time, dose: 79.0 mg/kg/injection, schedule: Q01DX009 (ip), vehicle: Klucel (hydroxypropylcellulose) (HPC) 114 % of control and 110 % of control | endpoint: mean survival time, dose: 118.0 mg/kg/injection, schedule: Q01DX009 (ip), vehicle: Klucel (hydroxypropylcellulose) (HPC) 100 % of control | endpoint: mean survival time, dose: 177.0 mg/kg/injection, schedule: Q01DX009 (ip), vehicle: Klucel (hydroxypropylcellulose) (HPC) 112 % of control

Cc1c2c(ccc3ccccc32)c[n+]2ccccc12
inactive: endpoint: mean survival time, dose: 1.56 mg/kg/injection, schedule: Q01DX009 (ip), vehicle: saline 98 % of control and 100 % of control | [13] 103 % of control and 106 % of control | [14] 104 % of control and 105 % of control | [15] 103 % of control and 108 % of control

O=C1Nc2ccc([N+](=O)[O-])c3c(C(=O)O)ccc1c23
inactive: [2] 98 % of control | [4] 104 % of control | [6] 101 % of control

COc1ccc(Cc2nc(C)cc3cc(OC)c(OC)cc23)cc1OC
inactive: endpoint: mean survival time, dose: 25.0 mg/kg/injection, schedule: Q01DX009 (ip), vehicle: water 92 % of control

C=CCON(C)c1ccccc1
inactive: [1] 94 % of control | [3] 90 % of control | [5] 99 % of control

O=C(Cc1ccccc1)NCc1ccccc1
inactive: endpoint: mean survival time, dose: 6.25 mg/kg/injection, schedule: Q01DX001 (ip), vehicle: saline 101 % of control | endpoint: mean survival time, dose: 12.5 mg/kg/injection, schedule: Q01DX001 (ip), vehicle: saline 94 % of control | endpoint: mean survival time, dose: 25.0 mg/kg/injection, schedule: Q01DX001 (ip), vehicle: saline 101 % of control

CN(C)CC1CCCC12OCCO2 (centres undefined)
inactive: endpoint: mean survival time, dose: 75.0 mg/kg/injection, schedule: Q01DX001 (ip), vehicle: other 100 % of control | endpoint: mean survival time, dose: 150.0 mg/kg/injection, schedule: Q01DX001 (ip), vehicle: other 96 % of control | endpoint: mean survival time, dose: 300.0 mg/kg/injection, schedule: Q01DX001 (ip), vehicle: other 106 % of control

Nc1c(Br)cc2c(c1Br)Cc1cc(Cl)ccc1-2
inactive: [16] 107 % of control | [17] 111 % of control | [18] 103 % of control | [19] 103 % of control | [1] 102 % of control | [2] 105 % of control | [4] 100 % of control | [6] 86 % of control

CC(=O)NC(C)C(C)(C)O (centres undefined)
inactive: [7] 91 % of control | [8] 101 % of control | [9] 95 % of control

O=C1C(Cl)=C(Cl)C(=O)C(Cl)=C1Cl
inactive: [16] 101 % of control | [18] 102 % of control | [1] 98 % of control

COC(=O)[C@@H]1[C@@H](O)[C@H](OC(=O)c2cc(OC)c(OC)c(OC)c2)C[C@@H]2CN3CCc4c([nH]c5ccccc45)[C@H]3C[C@@H]21
inactive: endpoint: mean survival time, dose: 1.56 mg/kg/injection, schedule: Q01DX009 (ip), vehicle: saline sonified 93 % of control | endpoint: mean survival time, dose: 3.13 mg/kg/injection, schedule: Q01DX009 (ip), vehicle: saline sonified 95 % of control | endpoint: mean survival time, dose: 6.25 mg/kg/injection, schedule: Q01DX009 (ip), vehicle: saline sonified 102 % of control | endpoint: mean survival time, dose: 12.5 mg/kg/injection, schedule: Q04DX003 (ip), vehicle: saline with Tween-80 103 % of control | [17] 103 % of control | [19] 103 % of control

CCOC(=O)C(Cc1ccccc1C(=O)NC)c1ccccc1 (centres undefined)
inactive: [2] 94 % of control | [4] 94 % of control | endpoint: mean survival time, dose: 400.0 mg/kg/injection, schedule: Q01DX009 (ip), vehicle: saline sonified 92 % of control | [6] 100 % of control

O=C(O)/C(Br)=C/c1ccccc1
inactive: [18] 100 % of control | [1] 90 % of control | [2] 103 % of control | [3] 90 % of control | [4] 110 % of control | [6] 110 % of control

Cn1c(N)c(C2OC(=O)c3ccccc32)c(=O)n(C)c1=O (centres undefined)
inactive: endpoint: mean survival time, dose: 100.0 mg/kg/injection, schedule: Q04DX002 (ip), vehicle: Klucel (hydroxypropylcellulose) (HPC) 98 % of control | endpoint: mean survival time, dose: 200.0 mg/kg/injection, schedule: Q04DX002 (ip), vehicle: Klucel (hydroxypropylcellulose) (HPC) 98 % of control

CCCCC(O)CCCCCCCCCC(=O)O (centres undefined)
inactive: [2] 97 % of control | [4] 101 % of control

O=C(Nc1ccccc1)Oc1ccc2ccccc2c1
inactive: [10] 96 % of control | [11] 94 % of control | [12] 97 % of control

C=C(NC(=O)C(=C)NC(=O)c1csc(C2=NC3c4csc(n4)C4NC(=O)c5csc(n5)C(C(C)(O)C(C)O)NC(=O)C5CSC(=N5)/C(=C/C)NC(=O)C(C(C)O)NC(=O)c5csc(n5)C3(CC2)NC(=O)C(C)NC(=O)C(=C)NC(=O)C(=C)NC(=O)C(C(C)C)NC2C=Cc3c(C(C)O)cc(nc3C2O)C(=O)OC4C)n1)C(N)=O (centres undefined)
inactive: [13] 107 % of control | [14] 113 % of control | [15] 124 % of control and 108 % of control | endpoint: mean survival time, dose: 25.0 mg/kg/injection, schedule: Q01DX009 (ip), vehicle: saline 113 % of control and 115 % of control | endpoint: mean survival time, dose: 50.0 mg/kg/injection, schedule: Q01DX009 (ip), vehicle: saline 120 % of control | endpoint: mean survival time, dose: 100.0 mg/kg/injection, schedule: Q01DX009 (ip), vehicle: saline 113 % of control and 124 % of control | endpoint: mean survival time, dose: 200.0 mg/kg/injection, schedule: Q01DX009 (ip), vehicle: saline 124 % of control and 108 % of control

BrCCN(CCBr)c1ccc2c3c(cccc13)-c1ccccc1-2
inactive: endpoint: mean survival time, dose: 1.5 mg/kg/injection, schedule: Q01DX Z (ip), vehicle: saline 113 % of control | endpoint: mean survival time, dose: 2.0 mg/kg/injection, schedule: Q01DX Z (ip), vehicle: saline 98 % of control | endpoint: mean survival time, dose: 3.2 mg/kg/injection, schedule: Q01DX Z (ip), vehicle: saline 110 % of control | endpoint: mean survival time, dose: 5.0 mg/kg/injection, schedule: Q01DX Z (ip), vehicle: saline 121 % of control

S=C(S)NC1CCCCC1
inactive: endpoint: mean survival time, dose: 6.0 mg/kg/injection, schedule: Q04DX003 (ip), vehicle: saline with Tween-80 98 % of control | endpoint: mean survival time, dose: 12.0 mg/kg/injection, schedule: Q04DX003 (ip), vehicle: saline with Tween-80 102 % of control | endpoint: mean survival time, dose: 24.0 mg/kg/injection, schedule: Q04DX003 (ip), vehicle: saline with Tween-80 94 % of control

CN(C)C(c1ccccc1)P(=O)(O)O (centres undefined)
inactive: [7] 98 % of control | [8] 101 % of control | [9] 98 % of control

CC(=O)OC1CCC2C3CCC4(C)C(C(C)CCCC(C)C)CCC4C3CC(C)(O)C2C1 (centres undefined)
inactive: endpoint: mean survival time, dose: 100.0 mg/kg/injection, schedule: Q01DX001 (sc), vehicle: steriod suspending solution 101 % of control | endpoint: mean survival time, dose: 200.0 mg/kg/injection, schedule: Q01DX001 (sc), vehicle: steriod suspending solution 101 % of control | endpoint: mean survival time, dose: 400.0 mg/kg/injection, schedule: Q01DX001 (sc), vehicle: steriod suspending solution 101 % of control

NC1=CC(=O)c2ccccc2C1=O
inactive: [18] 96 % of control | [1] 100 % of control

CC1CCOC(C(C)C)O1 (centres undefined)
inactive: endpoint: mean survival time, dose: 50.0 mg/kg/injection, schedule: Q04DX002 (ip), vehicle: saline 96 % of control | endpoint: mean survival time, dose: 100.0 mg/kg/injection, schedule: Q04DX002 (ip), vehicle: saline 96 % of control | endpoint: mean survival time, dose: 200.0 mg/kg/injection, schedule: Q04DX002 (ip), vehicle: saline 92 % of control
